# In publication PMC7795354, “Development of Radiogallium-Labeled Peptides for Platelet-Derived Growth Factor Receptor β (PDGFRβ) Imaging: Influence of Different Linkers” (Molecules, 2020):
# Where “and” joins values, the source holds several entries; their conditions need not be identical. Identical values can stand only once. Like-named read-outs stand apart in the source and are kept apart here. *1 amine or outer side, *2 acyl side, *3 side chain or, on linkers, in order; H or OH if unused. Where a SMILES comes first, the peptide text is derived from it. Where no end group is shown, it is not given here. [ ]: non-standard residue; d: D form. The star is where a group is joined. DOTA = O=C(O)CN1CCN(CC(=O)O)CCN(CC(=O)*)CCN(CC(=O)O)CC1; NH(CH2CH2O)4CH2CO = O=C(COCCOCCOCCOCCN[*:1])[*:2]; βAla = NCCC(=O)O
# Legend:
# PDGFRβ = conditions: cited from earlier work
# [1] = In vitro stability in PBS pH 7.4; conditions: 37 °C, 0.1 M PBS pH 7.4
# Description: (§3) Briefly, the solution of radiotracers (37 kBq/well, 50 µL) in a sealed tube containing 0.1 M PBS pH 7.4 (450 µL) was incubated at 37 °C for 24 h. At 3 and 24 h after incubation, the purity of radiotracers was analyzed by RP-HPLC. Meanwhile, for stability assay in murine plasma, radiotracers were mixed in murine plasma at a ratio of 1:10. After incubation at 37 °C for 10 min and 1 h, an equivalent amount of ice-cold acetonitrile was added. After centrifugation at 1000× g at 4 °C for 10 min, the supernatant was filtered through a 0.45-µm filter followed by analyzing using RP-HPLC as described above. Then, the radiochemical purities were determined.
# [2] = Octanol-water partition coefficient (log P), shake-flask; conditions: n-octanol/PBS, pH 7.4
# Description: (§4) The octanol-water partition coefficients for radiotracers were determined via the assessment of their distribution in n-octanol and PBS (pH 7.4) using shake-flask method as described previously [48]. Radioactivity of each layer was measured using auto well gamma counter (n = 4).
# [3] = In vitro stability in murine plasma; conditions: 37 °C
# Description: as §3
# [4] = Biodistribution in BxPC3-luc tumor-bearing mice; assay type: in vivo, BALB/c nu/nu mice; conditions: female, BALB/c nu/nu, mouse, iv, 74 kBq, total radioactivity, 1 h post-injection; for tissue uptake at 1 h: i.v.
# Description: (§1) All animal handling procedures were approved by the Kanazawa University Animal Care Committee. Experiments with animals were conducted in accordance with the Guidelines for the Care and Use of Laboratory Animals of Kanazawa University. The animals were housed with free access to food and water at 23 °C with a 12 h light/dark schedule. Four-week-old female BALB/c nu/nu mice (12–17 g) were purchased from Japan SLC Inc. (Hamamatsu, Japan). The tumor-bearing model was prepared by subcutaneous inoculation of 1 × 10^7 BxPC3-luc cells into left shoulder of female BALB/c nu/nu mice. The biodistribution experiment was performed approximately 4–5 weeks post-inoculation.
# (§2) A saline solution of [^67Ga]27 or [^67Ga]28 (74 kBq, 100 µL) was injected intravenously into the tail vein of the mice. The mice were sacrificed at 10 min post-injection for [^67Ga]27 and 1 h post-injection for [^67Ga]27 or [^67Ga]28. For in vivo blocking studies, 100 μL of a mixed saline solution of [^67Ga]27 (74 kBq) and IPLPPPRRPFFK peptide (1 mg/mouse) was injected via tile vein into the tumor-bearing mice. The mice were sacrificed at 1 h post-injection. Tissues of interest were removed and weighed. The radioactivity of the tissues was determined using an auto well gamma counter, and counts were corrected for background radiation and physical decay during counting. The data were expressed as percent injected dose per gram tissue (%ID/g).
# [5] = test system: BxPC3-luc tumor-bearing mice; test: Biodistribution in BxPC3-luc tumor-bearing mice; assay type: in vivo, BALB/c nu/nu mice; conditions: 1 h post-injection, i.v.
# Description: as §1, §2
# [6] = Biodistribution in BxPC3-luc tumor-bearing mice; assay type: in vivo; conditions: female, BALB/c nu/nu, mouse, stomach, iv, 74 kBq, total radioactivity; 1 h post-injection
# [7] = buffer
# Description: as §3
# [8] = mouse, 1 h
# Description: as §3
# physchem = conditions: pH 7.4
# Description: as §4
# in vitro = conditions: mouse, plasma, In vitro stability in murine plasma, percentage of remained intact radiotracer
# Description: as §3
# [9] = mouse, plasma, In vitro stability in murine plasma, percentage of remained intact radiotracer, 1 h
compound,measurement,setting,value
"yIPLPPPRRPFFK ([dY]IPLPPPRRPFFK) [yG2, … with tyrosine at the N-terminal for radioiodination]",Affinity for the PDGFRβ relative to IPLPPPSRPFFKY (PDGFR-P1),PDGFRβ; higher affinity,16 times
"CC[C@H](C)[C@H](NC(=O)[C@@H](C)NC(=O)[C@@H](C)NC(=O)[C@@H](C)NC(=O)CN1CCN(CC(=O)O)CCN(CC(=O)O)CCN(CC(=O)O)CC1)C(=O)N1CCC[C@H]1C(=O)N[C@@H](CC(C)C)C(=O)N1CCC[C@H]1C(=O)N1CCC[C@H]1C(=O)N1CCC[C@H]1C(=O)N[C@@H](CCCNC(=N)N)C(=O)N[C@@H](CCCNC(=N)N)C(=O)N1CCC[C@H]1C(=O)N[C@@H](Cc1ccccc1)C(=O)N[C@@H](Cc1ccccc1)C(=O)N[C@@H](CCCCN)C(=O)O [[^67Ga]23, [^67Ga]Ga-DOTA-aaa-IPLPPPRRPFFK, metal not drawn] ({DOTA}-[dA][dA][dA]IPLPPPRRPFFK-OH)","In vitro stability in PBS pH 7.4, percentage of remained intact radiotracer",[1]; 3 h,95.9 ± 0.7%
same,"In vitro stability in PBS pH 7.4, percentage of remained intact radiotracer",[1]; 24 h,94.0 ± 0.5%
same,logP,[2],< -4
same,remaining at 1 h,[3]; [9],15.7 ± 2.9%
"IPLPPPSRPFFK [PDGFR-P1, linear dodecapeptide targeting PDGFRβ identified by biopanning]",IC50,PDGFRβ; targeting PDGFRβ,1.4 µM
"CC[C@H](C)[C@H](NC(=O)CCNC(=O)CCNC(=O)CCNC(=O)CCNC(=O)CN1CCN(CC(=O)O)CCN(CC(=O)O)CCN(CC(=O)O)CC1)C(=O)N1CCC[C@H]1C(=O)N[C@@H](CC(C)C)C(=O)N1CCC[C@H]1C(=O)N1CCC[C@H]1C(=O)N1CCC[C@H]1C(=O)N[C@@H](CCCNC(=N)N)C(=O)N[C@@H](CCCNC(=N)N)C(=O)N1CCC[C@H]1C(=O)N[C@@H](Cc1ccccc1)C(=O)N[C@@H](Cc1ccccc1)C(=O)N[C@@H](CCCCN)C(=O)O [[^67Ga]26, [^67Ga]Ga-DOTA-ββββ-IPLPPPRRPFFK, metal not drawn] ({DOTA-βAla-βAla-βAla-βAla}-IPLPPPRRPFFK-OH)","In vitro stability in PBS pH 7.4, percentage of remained intact radiotracer",[1]; 3 h,96.9 ± 0.3%
same,"In vitro stability in PBS pH 7.4, percentage of remained intact radiotracer",[1]; 24 h,95.4 ± 0.2%
same,logP,[2],< -4
same,remaining at 1 h,[3]; [9],33.1 ± 5.7%
"CC[C@H](C)[C@H](NC(=O)COCCOCCOCCOCCNC(=O)CN1CCN(CC(=O)O)CCN(CC(=O)O)CCN(CC(=O)O)CC1)C(=O)N1CCC[C@H]1C(=O)N[C@@H](CC(C)C)C(=O)N1CCC[C@H]1C(=O)N1CCC[C@H]1C(=O)N1CCC[C@H]1C(=O)N[C@@H](CCCNC(=N)N)C(=O)N[C@@H](CCCNC(=N)N)C(=O)N1CCC[C@H]1C(=O)N[C@@H](Cc1ccccc1)C(=O)N[C@@H](Cc1ccccc1)C(=O)N[C@@H](CCCCN)C(=O)O [[^67Ga]28, [^67Ga]Ga-DOTA-EG4-IPLPPPRRPFFK, metal not drawn] ({DOTA}-[NH(CH2CH2O)4CH2CO]IPLPPPRRPFFK-OH)","In vitro stability in PBS pH 7.4, percentage of remained intact radiotracer",[1]; 3 h,96.9 ± 0.2%
same,"In vitro stability in PBS pH 7.4, percentage of remained intact radiotracer",[1]; 24 h,94.3 ± 0.3%
same,tissue uptake at 1 h,"[4]; blood, read-out: Biodistribution, Blood",0.12 %ID/g
same,tissue uptake at 1 h,"[4]; bone, read-out: Biodistribution, Bone",0.1 %ID/g
same,tissue uptake at 1 h,"[4]; heart, read-out: Biodistribution, Heart",0.03 %ID/g
same,tissue uptake at 1 h,"[4]; BxPC3-luc tumor, read-out: Biodistribution, Tumor",0.25 %ID/g
same,tissue uptake at 1 h,"[4]; kidney, read-out: Biodistribution, Kidney",2.96 %ID/g
same,tissue uptake at 1 h,"[4]; large intestine, read-out: Biodistribution, Large intestine",0.11 %ID/g
same,tissue uptake at 1 h,"[4]; liver, read-out: Biodistribution, Liver",0.2 %ID/g
same,tissue uptake at 1 h,"[4]; lung, read-out: Biodistribution, Lung",0.18 %ID/g
same,tissue uptake at 1 h,"[4]; muscle, read-out: Biodistribution, Muscle",0.03 %ID/g
same,tissue uptake at 1 h,"[4]; pancreas, read-out: Biodistribution, Pancreas",0.07 %ID/g
same,tissue uptake at 1 h,"[4]; small intestine, read-out: Biodistribution, Small intestine",0.34 %ID/g
same,tissue uptake at 1 h,"[4]; spleen, read-out: Biodistribution, Spleen",0.07 %ID/g
same,tissue to tissue ratio at 1 h,[4]; tumor/blood,2.05
same,"Biodistribution, Brain",[5],0.00 (0.00) %injected dose/gram tissue
same,Tumor/Blood ratio,[5],2.05 and 2.05 ± 0.77
same,logP,[2],< -4
same,"In vitro stability in murine plasma, percentage of remained intact radiotracer","[3]; 1 h, 60 min",80.1 ± 0.8%
same,remaining at 10 min,"[3]; mouse, plasma, In vitro stability in murine plasma, percentage of remained intact radiotracer, 10 min",96.2 ± 1.1%
same,remaining at 1 h,[3]; [9],> 75%
same,tissue uptake dose at 1 h,[6],0.01 %ID
IPLPPPRRPFFK,IC50,PDGFRβ; affinity for PDGFRβ,0.48 µM
"CC[C@H](C)[C@H](NC(=O)CN1CCN(CC(=O)O)CCN(CC(=O)O)CCN(CC(=O)O)CC1)C(=O)N1CCC[C@H]1C(=O)N[C@@H](CC(C)C)C(=O)N1CCC[C@H]1C(=O)N1CCC[C@H]1C(=O)N1CCC[C@H]1C(=O)N[C@@H](CCCNC(=N)N)C(=O)N[C@@H](CCCNC(=N)N)C(=O)N1CCC[C@H]1C(=O)N[C@@H](Cc1ccccc1)C(=O)N[C@@H](Cc1ccccc1)C(=O)N[C@@H](CCCCN)C(=O)O [[^67Ga]22, [^67Ga]Ga-DOTA-IPLPPPRRPFFK, metal not drawn] ({DOTA}-IPLPPPRRPFFK-OH)","In vitro stability in PBS pH 7.4, percentage of remained intact radiotracer",[7]; 3 h,95.3 ± 2.7%
same,"In vitro stability in PBS pH 7.4, percentage of remained intact radiotracer",[7]; 24 h,94.1 ± 0.6%
same,"In vitro stability in murine plasma, percentage of remained intact radiotracer",[8],35.2 ± 1.7%
same,logP,physchem,< -4
same,remaining at 1 h,in vitro,35%
"CC[C@H](C)[C@H](NC(=O)[C@@H](C)NC(=O)[C@@H](C)NC(=O)[C@@H](C)NC(=O)[C@@H](C)NC(=O)[C@@H](C)NC(=O)CN1CCN(CC(=O)O)CCN(CC(=O)O)CCN(CC(=O)O)CC1)C(=O)N1CCC[C@H]1C(=O)N[C@@H](CC(C)C)C(=O)N1CCC[C@H]1C(=O)N1CCC[C@H]1C(=O)N1CCC[C@H]1C(=O)N[C@@H](CCCNC(=N)N)C(=O)N[C@@H](CCCNC(=N)N)C(=O)N1CCC[C@H]1C(=O)N[C@@H](Cc1ccccc1)C(=O)N[C@@H](Cc1ccccc1)C(=O)N[C@@H](CCCCN)C(=O)O [[^67Ga]24, [^67Ga]Ga-DOTA-aaaaa-IPLPPPRRPFFK, metal not drawn] ({DOTA}-[dA][dA][dA][dA][dA]IPLPPPRRPFFK-OH)","In vitro stability in PBS pH 7.4, percentage of remained intact radiotracer",[1]; 3 h,96.3 ± 1.1%
same,"In vitro stability in PBS pH 7.4, percentage of remained intact radiotracer",[1]; 24 h,94.0 ± 0.5%
same,logP,[2],< -4
same,remaining at 1 h,[3]; [9],41.4 ± 2.5%
"CC[C@H](C)[C@H](NC(=O)CCNC(=O)CCNC(=O)CN1CCN(CC(=O)O)CCN(CC(=O)O)CCN(CC(=O)O)CC1)C(=O)N1CCC[C@H]1C(=O)N[C@@H](CC(C)C)C(=O)N1CCC[C@H]1C(=O)N1CCC[C@H]1C(=O)N1CCC[C@H]1C(=O)N[C@@H](CCCNC(=N)N)C(=O)N[C@@H](CCCNC(=N)N)C(=O)N1CCC[C@H]1C(=O)N[C@@H](Cc1ccccc1)C(=O)N[C@@H](Cc1ccccc1)C(=O)N[C@@H](CCCCN)C(=O)O [[^67Ga]25, [^67Ga]Ga-DOTA-ββ-IPLPPPRRPFFK, metal not drawn] ({DOTA-βAla-βAla}-IPLPPPRRPFFK-OH)","In vitro stability in PBS pH 7.4, percentage of remained intact radiotracer",[1]; 3 h,94.2 ± 1.7%
same,"In vitro stability in PBS pH 7.4, percentage of remained intact radiotracer",[1]; 24 h,93.0 ± 0.4%
same,logP,[2],< -4
same,remaining at 1 h,[3]; [9],26.2 ± 6.7%
